Values after ≈ are worked out from the molar mass of the structure shown. Where two headings read alike, the source gives them in different places.
How the values were obtained:
[1] = target: T1, human TRPV1 (Homo sapiens (Human), UniProt Q8NER1); test: Capsaicin-based assay, Protocol 2, TRPV1/CHO cells (hCAP-CHO), Fluo-4 FLIPR; assay type: cell-based; settings: 100 nM capsaicin, mean ± SEM
How it was run: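 CHO cells stably transfected with human TRPV1 cDNA (G418-selected) were loaded with 3 μM Fluo-4 for 1 h, washed, then read on FLIPR with 15 s baseline before additions. Compound tested at final 100 μM to 1.5625 μM against capsaicin stimulation; calcium fluorescence time course curve-fitted.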

[2] = target: T1, human TRPV1; test: pH-based assay, Protocol 2, TRPV1/CHO cells (hpH-CHO), Fura-2 Ca2+ influx; assay type: cell-based; settings: pH 5.0-5.1 (H2SO4), mean ± SEM
[3] = Aqueous solubility at pH 1.2 and pH 6.8; assay type: physicochemical; settings: aqueous solution
[4] = pH 1.2, simulated gastric fluid, read-out: aqueous solubility at pH 1.2
[5] = pH 6.8, aqueous buffer, read-out: aqueous solubility at pH 6.8

T1 sequence (Q8NER1 whole entry, looked up): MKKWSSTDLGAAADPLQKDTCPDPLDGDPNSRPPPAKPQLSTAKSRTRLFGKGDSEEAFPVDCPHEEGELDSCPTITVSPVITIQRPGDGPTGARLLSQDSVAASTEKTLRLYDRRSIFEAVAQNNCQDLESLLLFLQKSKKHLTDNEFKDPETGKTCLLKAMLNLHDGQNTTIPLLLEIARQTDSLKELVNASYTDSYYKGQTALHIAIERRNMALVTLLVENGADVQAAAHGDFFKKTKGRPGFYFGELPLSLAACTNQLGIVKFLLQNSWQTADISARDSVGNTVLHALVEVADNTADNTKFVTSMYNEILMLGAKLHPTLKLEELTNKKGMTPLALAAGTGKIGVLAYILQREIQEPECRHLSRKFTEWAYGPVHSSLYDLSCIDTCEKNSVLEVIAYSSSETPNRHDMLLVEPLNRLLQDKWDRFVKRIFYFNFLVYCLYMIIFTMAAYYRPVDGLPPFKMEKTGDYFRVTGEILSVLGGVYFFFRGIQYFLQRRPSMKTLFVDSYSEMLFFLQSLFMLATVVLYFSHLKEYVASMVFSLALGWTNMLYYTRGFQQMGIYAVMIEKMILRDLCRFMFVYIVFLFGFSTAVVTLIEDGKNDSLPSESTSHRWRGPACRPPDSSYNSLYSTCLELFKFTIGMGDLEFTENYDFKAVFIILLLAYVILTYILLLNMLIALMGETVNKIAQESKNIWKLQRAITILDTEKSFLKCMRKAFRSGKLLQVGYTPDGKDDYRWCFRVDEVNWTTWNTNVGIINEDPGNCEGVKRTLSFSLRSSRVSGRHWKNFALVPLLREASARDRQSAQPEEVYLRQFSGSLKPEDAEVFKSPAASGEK

IC50 [1]	IC50 [2]	solubility [3, 4]	solubility [3, 5]	SMILES
89 ± 34 nM	32.8 ± 8.1 nM	–	–	Cc1cc2nc(NC(=O)N3CCN(c4ncc([C@H](O)[C@H](C)O)cc4F)CC3)sc2cc1C [C170(r), 4-(5-((1S,2S)-1,2-dihydroxypropyl)-3-fluoropyridin-2-yl)-N-(5,6-dimethylbenzo[d]thiazol-2-yl)piperazine-1-carboxamide]
42.8 ± 2 nM	17.4 ± 1.2 nM	–	–	C[C@H](O)[C@@H](O)c1cnc(N2CCN(C(=O)Nc3nc4ccc(F)cc4s3)CC2)c(Cl)c1 [C4(r), 4-{3-Chloro-5-[(1S,2S)-1,2-dihydroxypropyl]pyridin-2-yl}-N-(6-fluorobenzo[d]thiazol-2-yl)piperazine-1-carboxamide]
49 ± 10 nM	136 ± 20 nM	–	–	C[C@H](O)[C@@H](O)c1cnc(N2CCN(C(=O)Nc3nc4cc(F)c(F)cc4s3)C[C@H]2C)c(F)c1 [B158(j), (R)—N-(5,6-difluorobenzo[d]thiazol-2-yl)-4-{5-[(1S,2S)-1,2-dihydroxypropyl]-3-fluoropyridin-2-yl}-3-methylpiperazine-1-carboxamide]
177 ± 69 nM	98 ± 27 nM	> 50 µM	> 50 µM	C[C@H]1CN(c2ncc([C@H](O)CO)cc2F)CCN1C(=O)Nc1nc2ccccc2s1 [A122(a), (S)—N-(benzo[d]thiazol-2-yl)-4-(5-((S)-1,2-dihydroxyethyl)-3-fluoropyridin-2-yl)-2-methylpiperazine-1-carboxamide]
62.4 ± 13.8 nM	17.1 nM	> 50 µM	5 µM (≈ 2.34 µg/mL)	C[C@H]1CN(c2ncc([C@H](O)CO)cc2F)CCN1C(=O)Nc1nc2cc(F)c(F)cc2s1 [A158(a), (S)—N-(5,6-difluorobenzo[d]thiazol-2-yl)-4-(5-((S)-1,2-dihydroxyethyl)-3-fluoropyridin-2-yl)-2-methylpiperazine-1-carboxamide]
112 ± 32 nM	81 ± 13 nM	–	–	C[C@@H]1CN(C(=O)Nc2nc3ccc(F)cc3s2)CCN1c1ncc([C@H](O)CO)cc1F [A125(b), (R)-4-{5-[(S)-1,2-dihydroxyethyl]-3-fluoropyridin-2-yl}-N-(6-fluorobenzo[d]thiazol-2-yl)-3-methylpiperazine-1-carboxamide]
99 ± 24 nM	69 ± 3 nM	> 50 µM	3 µM (≈ 1.35 µg/mL)	C[C@H](O)[C@@H](O)c1cnc(N2CCN(C(=O)Nc3nc4ccc(F)cc4s3)CC2)c(F)c1 [C125(r), 4-(5-((1S,2S)-1,2-dihydroxypropyl)-3-fluoropyridin-2-yl)-N-(6-fluorobenzo[d]thiazol-2-yl)piperazine-1-carboxamide]
71 ± 20 nM	67 ± 12 nM	> 50 µM	4 µM (≈ 1.78 µg/mL)	Cc1ccc2nc(NC(=O)N3CCN(c4ncc([C@H](O)[C@H](C)O)cc4F)CC3)sc2c1 [C126(r), 4-[5-((1S,2S)-1,2-Dihydroxy-propyl)-3-fluoro-pyridin-2-yl]piperazine-1-carboxylic acid (6-methyl-benzothiazol-2-yl)-amide]
68 ± 17 nM	40.8 ± 3.2 nM	–	–	C[C@@H]1CN(C(=O)Nc2nc3cc(F)c(F)cc3s2)CCN1c1ncc([C@H](O)CO)cc1F [AE, (R)—N-(5,6-difluorobenzo[d]thiazol-2-yl)-4-{5-[(S)-1,2-dihydroxyethyl]-3-fluoropyridin-2-yl}-3-methylpiperazine-1-carboxamide]
40.2 ± 11 nM	12.2 ± 5.9 nM	> 50 µM	14 µM (≈ 6.24 µg/mL)	Cc1ccc2nc(NC(=O)N3CCN(c4ncc([C@H](O)CO)cc4F)C[C@@H]3C)sc2c1 [A126(a), (S)-4-(5-((S)-1,2-dihydroxyethyl)-3-fluoropyridin-2-yl)-2-methyl-N-(6-methylbenzo[d]thiazol-2-yl)piperazine-1-carboxamide]
